Source: ChEMBL document CHEMBL1201862, “PubChem BioAssay data set” (2004)
Each block holds one compound with its values, some of them ahead of it. Active and inactive are the calls of the source.

What was measured:
[1] = target: T1, Oxysterols receptor LXR-beta (Homo sapiens, UniProt P55055); assay type: functional, cell-based;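 further: Cell-based luminescence dose-response assay of agonist activity at LXR, run as a confirmatory counterscreen to a daf-12 agonist screen; HEK293 cells with Gal4-LXR fusion and GAL4-driven luciferase reporter; agonist potency from rising luciferase signal of a Gal4-LXR reporter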
T1 sequence (P55055 whole entry): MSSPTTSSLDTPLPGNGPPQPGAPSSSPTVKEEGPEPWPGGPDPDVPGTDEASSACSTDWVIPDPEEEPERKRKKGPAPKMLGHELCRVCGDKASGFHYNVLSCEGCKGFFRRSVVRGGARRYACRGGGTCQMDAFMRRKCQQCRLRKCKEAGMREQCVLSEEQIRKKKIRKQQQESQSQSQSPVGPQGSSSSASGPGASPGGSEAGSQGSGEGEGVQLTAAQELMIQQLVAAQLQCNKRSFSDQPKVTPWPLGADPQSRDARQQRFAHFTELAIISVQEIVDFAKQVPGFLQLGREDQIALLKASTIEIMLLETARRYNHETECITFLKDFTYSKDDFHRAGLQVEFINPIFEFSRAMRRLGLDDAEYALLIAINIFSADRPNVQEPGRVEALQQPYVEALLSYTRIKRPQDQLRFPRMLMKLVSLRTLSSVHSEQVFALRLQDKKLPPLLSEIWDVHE

[2] = P. falciparum Dd2 growth inhibitors, dose response, SYBR Green, cherry-picked samples (AID 1159567); assay type: functional, cell-based
[3] = HepG2 cell cytotoxicity, dose response, cytotoxicity control, cherry-picked samples (AID 1159577); assay type: functional, cell-based
Kallikrein-7 = Kallikrein-7 (Homo sapiens, UniProt P49862); assay: Fluorescence Intensity-based biochemical primary high throughput dose response assay to identify activators of kallikrein-7 (K7) zymogen.
Chain of Kallikrein-7 (P49862 whole entry): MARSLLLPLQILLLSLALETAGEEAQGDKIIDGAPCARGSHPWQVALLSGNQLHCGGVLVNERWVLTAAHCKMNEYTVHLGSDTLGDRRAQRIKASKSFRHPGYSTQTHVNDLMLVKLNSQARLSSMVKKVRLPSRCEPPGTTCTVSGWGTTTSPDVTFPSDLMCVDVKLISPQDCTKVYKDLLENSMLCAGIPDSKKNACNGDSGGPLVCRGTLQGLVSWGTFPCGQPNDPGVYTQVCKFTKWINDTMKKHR

[4] = target: T2, Sentrin-specific protease 7 (Homo sapiens, UniProt Q9BQF6); assay type: functional;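 further: Luminescence-based dose-response confirmation of ultra-high-throughput screening hits, measuring inhibition of SENP7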
T2 sequence (Q9BQF6 whole entry): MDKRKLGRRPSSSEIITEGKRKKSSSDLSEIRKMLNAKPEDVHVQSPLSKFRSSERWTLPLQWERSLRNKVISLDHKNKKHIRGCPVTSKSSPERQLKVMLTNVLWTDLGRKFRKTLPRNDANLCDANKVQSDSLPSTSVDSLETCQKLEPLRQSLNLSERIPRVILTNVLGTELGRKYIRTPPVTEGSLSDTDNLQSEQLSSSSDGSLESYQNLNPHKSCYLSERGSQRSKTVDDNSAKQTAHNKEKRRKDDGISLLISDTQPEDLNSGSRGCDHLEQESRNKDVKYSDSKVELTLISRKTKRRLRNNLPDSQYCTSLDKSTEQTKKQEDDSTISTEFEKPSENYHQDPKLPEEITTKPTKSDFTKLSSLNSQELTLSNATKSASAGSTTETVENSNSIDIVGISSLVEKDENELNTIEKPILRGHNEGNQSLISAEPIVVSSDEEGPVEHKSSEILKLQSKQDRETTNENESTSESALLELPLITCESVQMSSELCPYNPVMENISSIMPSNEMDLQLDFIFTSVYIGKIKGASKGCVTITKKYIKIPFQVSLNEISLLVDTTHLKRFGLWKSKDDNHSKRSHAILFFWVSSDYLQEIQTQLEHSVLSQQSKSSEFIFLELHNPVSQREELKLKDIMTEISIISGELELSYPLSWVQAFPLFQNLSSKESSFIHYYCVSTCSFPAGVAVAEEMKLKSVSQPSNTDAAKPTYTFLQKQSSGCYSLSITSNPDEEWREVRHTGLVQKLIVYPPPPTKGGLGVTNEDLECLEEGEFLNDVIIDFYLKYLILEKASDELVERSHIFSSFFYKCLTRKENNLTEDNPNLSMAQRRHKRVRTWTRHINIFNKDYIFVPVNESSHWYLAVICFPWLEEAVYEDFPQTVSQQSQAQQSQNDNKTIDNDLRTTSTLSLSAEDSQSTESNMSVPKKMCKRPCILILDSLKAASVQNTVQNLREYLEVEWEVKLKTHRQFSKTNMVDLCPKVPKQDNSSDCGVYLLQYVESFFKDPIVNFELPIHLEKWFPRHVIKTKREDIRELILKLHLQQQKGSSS

Protein skinhead-1 = target: T3, Protein skinhead-1 (Caenorhabditis elegans, UniProt P34707); assay type: functional
T3 sequence (P34707 whole entry): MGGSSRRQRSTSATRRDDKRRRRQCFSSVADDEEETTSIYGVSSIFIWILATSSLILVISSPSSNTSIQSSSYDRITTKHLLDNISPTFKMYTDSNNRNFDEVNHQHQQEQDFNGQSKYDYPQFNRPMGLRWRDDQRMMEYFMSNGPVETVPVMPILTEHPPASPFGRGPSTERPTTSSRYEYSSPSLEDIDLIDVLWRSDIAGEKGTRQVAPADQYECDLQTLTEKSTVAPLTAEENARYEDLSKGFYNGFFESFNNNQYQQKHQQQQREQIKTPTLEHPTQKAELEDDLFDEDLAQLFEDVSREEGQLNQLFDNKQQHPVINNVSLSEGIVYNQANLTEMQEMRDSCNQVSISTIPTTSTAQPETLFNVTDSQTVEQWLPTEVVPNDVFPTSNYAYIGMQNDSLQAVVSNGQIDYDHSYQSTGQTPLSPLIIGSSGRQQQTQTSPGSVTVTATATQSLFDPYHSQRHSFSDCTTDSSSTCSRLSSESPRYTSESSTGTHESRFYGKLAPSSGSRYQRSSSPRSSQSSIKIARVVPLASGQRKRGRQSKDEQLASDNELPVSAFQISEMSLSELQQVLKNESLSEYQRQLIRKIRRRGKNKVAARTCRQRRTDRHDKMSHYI

Caspase-3 = target: T4, Caspase-3 (Homo sapiens, UniProt P42574); assay type: functional;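 further: Dose-response selectivity test against caspase-3 for candidate inhibitors of sentrin-specific proteases (SENPs)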
T4 sequence (P42574 whole entry): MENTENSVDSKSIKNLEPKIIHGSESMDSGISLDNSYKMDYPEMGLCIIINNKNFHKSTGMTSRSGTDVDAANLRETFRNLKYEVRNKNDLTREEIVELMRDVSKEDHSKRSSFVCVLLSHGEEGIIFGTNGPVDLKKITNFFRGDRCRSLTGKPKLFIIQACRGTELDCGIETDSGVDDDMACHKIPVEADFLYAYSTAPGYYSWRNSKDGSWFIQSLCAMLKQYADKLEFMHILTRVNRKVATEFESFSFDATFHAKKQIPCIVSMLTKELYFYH

[5] = target: T5, Sentrin-specific protease 6 (Homo sapiens, UniProt Q9GZR1); assay type: functional;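 further: Luminescence-based dose-response confirmatory assay of SENP6 inhibition, following up an ultra-high-throughput screen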
T5 sequence (Q9GZR1 whole entry): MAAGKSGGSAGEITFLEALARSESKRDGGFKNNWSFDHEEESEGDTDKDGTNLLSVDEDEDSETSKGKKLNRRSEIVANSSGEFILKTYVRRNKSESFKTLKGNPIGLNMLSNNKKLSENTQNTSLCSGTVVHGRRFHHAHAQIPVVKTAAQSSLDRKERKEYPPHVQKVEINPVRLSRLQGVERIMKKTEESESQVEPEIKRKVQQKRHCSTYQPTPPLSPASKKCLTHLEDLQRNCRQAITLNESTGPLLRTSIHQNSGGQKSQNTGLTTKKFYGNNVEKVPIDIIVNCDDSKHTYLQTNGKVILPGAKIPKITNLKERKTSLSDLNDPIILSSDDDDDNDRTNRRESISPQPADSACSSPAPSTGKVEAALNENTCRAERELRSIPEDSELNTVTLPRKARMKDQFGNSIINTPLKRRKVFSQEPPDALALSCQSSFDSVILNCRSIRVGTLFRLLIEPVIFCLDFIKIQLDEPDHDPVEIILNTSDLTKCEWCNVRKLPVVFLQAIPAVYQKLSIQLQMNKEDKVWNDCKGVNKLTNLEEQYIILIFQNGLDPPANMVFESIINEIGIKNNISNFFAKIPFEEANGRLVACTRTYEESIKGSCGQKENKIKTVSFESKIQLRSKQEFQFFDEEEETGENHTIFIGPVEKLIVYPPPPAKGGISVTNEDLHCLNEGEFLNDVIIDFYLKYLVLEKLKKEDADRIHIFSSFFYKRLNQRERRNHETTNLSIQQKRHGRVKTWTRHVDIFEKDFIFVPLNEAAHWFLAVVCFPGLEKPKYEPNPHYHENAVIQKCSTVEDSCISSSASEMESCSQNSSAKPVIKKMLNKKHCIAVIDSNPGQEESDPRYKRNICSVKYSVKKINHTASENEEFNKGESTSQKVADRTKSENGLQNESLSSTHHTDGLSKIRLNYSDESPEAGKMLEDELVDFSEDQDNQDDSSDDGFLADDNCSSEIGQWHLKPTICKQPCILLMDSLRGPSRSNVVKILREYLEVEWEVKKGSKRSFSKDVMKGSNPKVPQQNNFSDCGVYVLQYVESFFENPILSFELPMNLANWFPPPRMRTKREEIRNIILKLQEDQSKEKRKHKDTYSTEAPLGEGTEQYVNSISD

[6] = target: T6, Sentrin-specific protease 8 (Homo sapiens, UniProt Q96LD8); assay type: functional;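 further: luminescence read-out of SENP8 inhibition, dose-response confirmation following an ultra-high-throughput screen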
T6 sequence (Q96LD8 whole entry): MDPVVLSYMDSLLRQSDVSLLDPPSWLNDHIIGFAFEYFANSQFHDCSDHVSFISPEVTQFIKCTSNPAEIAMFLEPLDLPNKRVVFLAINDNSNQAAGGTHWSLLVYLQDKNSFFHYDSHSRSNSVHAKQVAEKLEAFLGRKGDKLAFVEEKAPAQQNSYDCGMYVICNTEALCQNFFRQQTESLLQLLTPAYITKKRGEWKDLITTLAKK

[7] = P. falciparum ATP4 D1247Y mutant growth inhibitors, dose response, NITD609-resistant line, SYBR Green, dry powder (AID 1159571); assay type: functional, cell-based;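 further: parasites synchronized at ring stage by sorbitol before testing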
[8] = P. falciparum Dd2 growth inhibitors, dose response, SYBR Green, dry powder samples (AID 1159566); assay type: functional, cell-based;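 further: potency for growth inhibition with lower SYBR green DNA signal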
[9] = P. falciparum 3D7-ScDHODH growth inhibitors, dose response, SYBR Green, dry powder samples (AID 1159570); assay type: functional, cell-based;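 further: parasite growth measured after 72 hours of compound exposure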
[10] = HepG2 cell cytotoxicity, dose response, cytotoxicity control, plate reader, dry powder samples (AID 1159569); assay type: functional, cell-based;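 further: inhibitor potency with signal falling toward the positive control level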

SMILES: CC1=NN(C(N)=S)C(=O)C1N=Nc1ccc(C)cc1C (stereo unspecified)
EC50 [1]: > 67.5 µM (inactive)
EC50 (cells): > 67.5 µM (inactive)

SMILES: CC(C)CC#Cc1ccc([C@@H]2[C@@H](CO)N3CCCCN(S(=O)(=O)Cc4ccccc4)C[C@@H]23)cc1
AC50 [2]: 5.76 µM (active)
AC50 [3]: > 39 µM (inactive)

SMILES: COc1ccc2c3c([nH]c2c1)[C@H](CO)N(C(=O)C1CCCC1)CC31CCN(Cc2cccc(F)c2)CC1
AC50 [2]: 3.49 µM (active)
AC50 [3]: 9.75 µM (active)

EC50 (Kallikrein-7): 8.07 µM (active)
SMILES: CCOC(=O)CC(=O)CSc1nc(C)cc(-c2cccnc2)c1C#N

EC50 (Kallikrein-7): 49.5 µM (inactive)
SMILES: Cc1cc(C)n2cc(CSCc3ccccc3)nc2n1

SMILES: Cc1ccccc1-c1nc(-c2ccc(Br)o2)no1
IC50 [4]: 4.23 µM (active)
EC50 [1]: > 67.6 µM (inactive)
IC50 (Protein skinhead-1): 39.7 µM (active)
IC50 (Caspase-3): 17 µM (active)
IC50 [5]: 23.5 µM (active)
IC50 [6]: 35.8 µM (active)
EC50 (cells): > 67.6 µM (inactive)

SMILES: COc1ccc2c3c(n(C)c2c1)[C@H](CO)NCC31CCN(Cc2ccc(-c3ccccn3)cc2)CC1
AC50 [7]: 0.222 µM (active)
AC50 [8]: 0.135 µM (active)
AC50 [2]: 0.322 µM (active)
AC50 [3]: 20.3 µM (active)
AC50 [9]: 0.265 µM (active)
AC50 [10]: 20 µM (active)
